Laboratory results taken from publication PMC7480271, “A molecular-logic gate for COX-2 and NAT based on conformational and structural changes: visualizing the progression of liver disease” (Chemical Science, 2020).

Target: NAT (N-acetyltransferase)
Assay: Kd measurement (Fig. S8, method not shown); fluorescence titration and 1H NMR of acetylation by NAT

Q: Which Kd does the source give for `COc1ccc2c(c1)c(CC(=O)NCCCCN1C(=O)c3cccc4cc(N)cc(c34)C1=O)c(C)n2C(=O)c1ccc(Cl)cc1` [3IAN4] here?
A: The Kd was 2.23 µM.
